# Laboratory results: paper PMC8017969, “Redox regulation of NADP-malate dehydrogenase is vital for land plants under fluctuating light environment” (Proceedings of the National Academy of Sciences of the …, 2021)
# Key:
# [1] = target: T1, MDHΔC (Arabidopsis thaliana, UniProt Q8H1E2); assay: NADPH oxidation monitored at […] nm, Michaelis-Menten fit; format: biochemical; conditions: reduced enzyme (pretreated with Trx-f1 and DTT); 0-200 μM oxaloacetate, 100 μM NADPH, 0.01 μM MDH, pH 7.5, 50 mM NaCl, 25 °C
# T1 construct: gene At5g58330; mature enzyme from Ser54 plus start Met, C-terminal extension from Cys430 to C terminus deleted, pET-23c, expressed in E. coli
# T1 sequence (Q8H1E2 54-429): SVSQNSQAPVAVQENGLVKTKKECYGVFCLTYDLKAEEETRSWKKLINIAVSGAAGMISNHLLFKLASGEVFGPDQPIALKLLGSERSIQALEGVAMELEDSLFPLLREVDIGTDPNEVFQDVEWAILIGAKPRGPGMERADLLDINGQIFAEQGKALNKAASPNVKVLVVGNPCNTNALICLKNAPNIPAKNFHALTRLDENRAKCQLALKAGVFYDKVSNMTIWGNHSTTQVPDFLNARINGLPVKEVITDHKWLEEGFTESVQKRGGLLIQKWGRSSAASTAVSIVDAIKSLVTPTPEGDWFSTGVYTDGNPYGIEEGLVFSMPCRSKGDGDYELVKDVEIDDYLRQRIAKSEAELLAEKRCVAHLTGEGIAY
# [2] = target: T2, MDHWT (chloroplast NADP-malate dehydrogenase) (Arabidopsis thaliana, UniProt Q8H1E2); assay: as above; format: biochemical; conditions: reduced enzyme (pretreated with Trx-f1 and DTT); 0-200 μM oxaloacetate, 100 μM NADPH, 0.01 μM MDH, pH 7.5, 50 mM NaCl, 25 °C
# T2 construct: gene At5g58330; mature enzyme from Ser54 plus start Met (transit peptide removed), pET-23c, expressed in E. coli, purified with added size exclusion step
# T2 sequence (Q8H1E2 54-443): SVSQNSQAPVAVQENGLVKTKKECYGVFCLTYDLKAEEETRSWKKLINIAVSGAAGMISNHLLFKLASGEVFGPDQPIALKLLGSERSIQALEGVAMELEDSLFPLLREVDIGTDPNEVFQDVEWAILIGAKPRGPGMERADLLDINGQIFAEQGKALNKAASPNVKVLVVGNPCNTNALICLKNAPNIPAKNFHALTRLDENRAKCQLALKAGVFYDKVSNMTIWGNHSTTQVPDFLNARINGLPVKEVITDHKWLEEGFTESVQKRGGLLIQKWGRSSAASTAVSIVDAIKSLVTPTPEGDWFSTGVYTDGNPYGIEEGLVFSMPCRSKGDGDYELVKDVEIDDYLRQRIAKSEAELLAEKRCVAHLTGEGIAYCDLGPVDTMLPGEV
compound,measurement,setting,value
O=C(O)CC(=O)C(=O)O [oxaloacetate],"NADPH oxidation monitored at 340 nm, Michaelis-Menten fit",[1],Activities of recombinant MDHWT and MDHΔC
same,"NADPH oxidation monitored at 340 nm, Michaelis-Menten fit",[2],Activities of recombinant MDHWT and MDHΔC
